As a reminder, the IC50 is the concentration needed to halve the response being measured. Higher therefore signals weaker potency.

Our source for the IC50 and Ki values is patent US10988477B2 (Merck Patent GmbH, priority 2018, dated 2021).

Test [1] deals with intracellular GCN2 (phosphorylation of the GCN2 substrate eIF2α) (Homo sapiens, UniProt Q9P2K8). Briefly: GCN2 cellular inhibition assay (AlphaScreen SureFire P-eIF2α Ser51, borrelidin-treated U2OS cells). Type of test: cell-based. The settings on record: biomarker assay, phosphorylated eIF2α Ser51 in borrelidin-treated U2OS cells. On the procedure:
Compounds can be screened for their ability to inhibit intracellular GCN2 using an AlphaScreen assay (Perkin Elmer) to detect phosphorylation of the GCN2 substrate eIF2α in borrelidin-treated cells. U2OS cells are plated at 5,000 cells per well in 384-well white polystyrene plates (Corning 3570) in McCoy's 5 A media (GIBCO 26600-023) supplemented with 10% foetal bovine serum (SAFC 12103C), Penicillin/Streptomycin solution diluted 1:100 (Sigma P0781), and 2 mM L-glutamine (Sigma G7513), and allowed to adhere overnight at 37° C. in 5% CO2. Compounds are then added to the cell media from a final concentration of 40 μM in 4-fold serial dilutions. Borrelidin (FluoroChem M01440) is immediately added to the wells to a final concentration of 10 μM and the cells are incubated for 1 h at 37° C. in 5% CO2. After 1 h of treatment with borrelidin, the media is removed, and the cells are lysed with lysis buffer (TGR BioSciences TGRLB) at ambient temperature.
An AlphaScreen SureFire P-eIF2α (Ser51) assay kit (Perkin Elmer TGREIF2S) was used to measure levels of eIF2α phosphorylated on Serine 51. Anti-phosphorylated eIF2α Ser51 antibody-linked acceptor beads (TGR BioScience 6760617) are added to the cell homogenate (diluted 1:250 into a mixture of activation (TGR BioScience TGRAB) and reaction buffer (TGR BioScience TGREIF2S) prepared immediately before use). The plate is then incubated for 2 h at ambient temperature in the dark. Anti-eIF2α antibody-linked donor beads (TGR BioScience 6760617) were then added (diluted 1:100 in dilution buffer (TGR BioScience TGRDB) prepared immediately before use). The plate is then incubated overnight at ambient temperature in the dark.
Plates are analyzed on an Alpha Technology-compatible PHERAstar FS plate reader (BMG Labtech Version 1.14) to quantify phosphorylated eIF2α Ser51 levels. The percentage inhibition of phosphorylated eIF2α is calculated by comparison to control wells stimulated with borrelidin alone.
In general terms: In Alpha technology, singlet oxygen from a donor bead excites a nearby acceptor bead.

Test [2] concerns the target GCN2 kinase (Homo sapiens, UniProt Q9P2K8). Kind of test: GCN2 enzyme inhibition assay (Transcreener ADP2 fluorescence polarization). The settings on record: 280 μM ATP. Type of test: biochemical. A digest of the protocol: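 Kinase activity is followed as ADP formation, measured by fluorescence polarization, using 4 nM enzyme with 280 μM ATP and 200 μM (RS)7 peptide at pH 7.5 and 25 °C for 1 h. Values come from a non-linear tight-binding fit.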

[3] abbreviates: Enzyme activity for compounds of Formula IV, Ki(app), 25° C.
[4] abbreviates: compounds of Formula II, 4 nM GCN2 kinase.

intracellular GCN2 (phosphorylation of the GCN2 substrate eIF2α), sequence (Q9P2K8 whole entry): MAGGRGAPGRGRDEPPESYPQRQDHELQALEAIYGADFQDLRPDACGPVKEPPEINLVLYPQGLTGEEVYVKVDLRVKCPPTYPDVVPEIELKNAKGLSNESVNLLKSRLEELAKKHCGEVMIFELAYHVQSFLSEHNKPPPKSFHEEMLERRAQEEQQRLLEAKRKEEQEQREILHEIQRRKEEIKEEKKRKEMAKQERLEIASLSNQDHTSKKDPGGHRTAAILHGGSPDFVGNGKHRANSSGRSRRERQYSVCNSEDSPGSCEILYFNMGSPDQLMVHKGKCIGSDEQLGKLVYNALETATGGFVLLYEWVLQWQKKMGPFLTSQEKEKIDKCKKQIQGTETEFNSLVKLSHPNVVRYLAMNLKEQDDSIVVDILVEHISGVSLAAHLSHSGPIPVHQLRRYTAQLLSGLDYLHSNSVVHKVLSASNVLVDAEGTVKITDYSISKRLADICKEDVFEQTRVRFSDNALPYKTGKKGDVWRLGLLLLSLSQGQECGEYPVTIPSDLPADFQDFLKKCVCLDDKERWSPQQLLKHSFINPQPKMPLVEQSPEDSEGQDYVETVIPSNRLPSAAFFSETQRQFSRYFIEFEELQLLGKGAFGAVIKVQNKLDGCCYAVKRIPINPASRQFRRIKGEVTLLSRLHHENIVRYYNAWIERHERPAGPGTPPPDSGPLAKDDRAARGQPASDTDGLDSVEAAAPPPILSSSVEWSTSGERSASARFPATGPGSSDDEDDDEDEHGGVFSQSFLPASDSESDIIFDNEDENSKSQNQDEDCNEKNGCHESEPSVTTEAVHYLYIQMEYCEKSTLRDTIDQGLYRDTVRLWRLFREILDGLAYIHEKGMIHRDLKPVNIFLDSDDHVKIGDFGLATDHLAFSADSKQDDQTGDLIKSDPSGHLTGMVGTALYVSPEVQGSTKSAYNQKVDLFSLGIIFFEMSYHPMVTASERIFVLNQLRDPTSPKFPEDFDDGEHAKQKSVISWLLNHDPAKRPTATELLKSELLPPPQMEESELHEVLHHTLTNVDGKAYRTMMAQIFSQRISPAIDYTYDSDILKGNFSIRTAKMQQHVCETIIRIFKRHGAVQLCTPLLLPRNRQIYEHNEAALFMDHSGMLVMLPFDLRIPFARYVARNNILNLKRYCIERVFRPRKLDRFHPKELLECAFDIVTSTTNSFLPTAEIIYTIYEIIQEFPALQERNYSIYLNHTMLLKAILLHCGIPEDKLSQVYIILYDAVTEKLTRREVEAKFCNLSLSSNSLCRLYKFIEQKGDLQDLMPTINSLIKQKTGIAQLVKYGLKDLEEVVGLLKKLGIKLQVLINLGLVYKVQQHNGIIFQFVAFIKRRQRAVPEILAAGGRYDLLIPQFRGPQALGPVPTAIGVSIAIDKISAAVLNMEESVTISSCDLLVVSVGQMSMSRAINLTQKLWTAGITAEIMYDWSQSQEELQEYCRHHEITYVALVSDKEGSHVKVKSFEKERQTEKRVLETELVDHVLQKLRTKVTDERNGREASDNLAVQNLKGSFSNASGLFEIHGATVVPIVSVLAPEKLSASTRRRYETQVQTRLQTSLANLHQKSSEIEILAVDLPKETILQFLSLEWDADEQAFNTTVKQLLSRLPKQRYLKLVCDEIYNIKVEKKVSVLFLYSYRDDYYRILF
GCN2 kinase, sequence (Q9P2K8 whole entry): as above

With `O=C1CCC2CN(c3ccnc(-c4cnc5cnc(C(F)F)cn45)n3)CCN12` (stereo not shown) [IV-98, 2-(2-(6-(Difluoromethyl)imidazo[1,2-a]pyrazin-3-yl)pyrimidin-4-yl)hexahydropyrrolo[1,2-a]pyrazin-6(2H)-one], in test [1] (compounds of Formula IV), the IC50 is greater than 5000 nM. The compound further returned a Ki in test [2] (setting [3]) of 100 to 1000 nM. In test [1] (compounds of Formula II), `CN1CCN(c2cc(-c3cnc4ccc(C(F)F)nn34)ncn2)CC1CC(N)=O` (stereo not shown) [II-492, 2-(4-(6-(6-(Difluoromethyl)imidazo[1,2-b]pyridazin-3-yl)pyrimidin-4-yl)-1-methylpiperazin-2-yl)acetamide] registered an IC50 of 500 to 5000 nM. In test [2] (setting [4]), this compound registered a Ki of 10 to 1000 nM. For `O=C1CC2(CCN(c3cc(-c4cnc5ccc(C(F)F)nn45)ncn3)CC2)N1` [II-52, 7-(6-(6-(Difluoromethyl)imidazo[1,2-b]pyridazin-3-yl)pyrimidin-4-yl)-1,7-diazaspiro[3.5]nonan-2-one], the IC50 in test [1] (compounds of Formula II) is greater than 5000 nM. The Ki in test [2] (setting [4]) is 10 to 1000 nM. Consider `C[C@@H]1COCCN1c1cc(-c2cnc3ccc(C(F)F)nn23)ncn1` [II-324, (R)-4-(6-(6-(Difluoromethyl)imidazo[1,2-b]pyridazin-3-yl)pyrimidin-4-yl)-3-methylmorpholine], for which the IC50 in test [1] (compounds of Formula II) is greater than 5000 nM. Further, the Ki in test [2] (setting [4]) was 10 to 1000 nM. With `O=S(=O)(NCC1CCCN(c2cc(-c3cnc4ccc(C(F)F)nn34)ncn2)C1)C1CNC1` (stereo not shown) [II-272, N-((1-(6-(6-(Difluoromethyl)imidazo[1,2-b]pyridazin-3-yl)pyrimidin-4-yl)piperidin-3-yl)methyl)azetidine-3-sulfonamide], the IC50 in test [1] (compounds of Formula II) is greater than 5000 nM. The Ki in test [2] (setting [4]) was in the range of 10 to 1000 nM. The compound `CC1CCCN(c2ccnc(-c3cnc4cnc(C(F)(F)F)cn34)n2)C1` (stereo not shown) [IV-424, 3-(4-(3-Methylpiperidin-1-yl)pyrimidin-2-yl)-6-(trifluoromethyl)imidazo[1,2-a]pyrazine] came in with an IC50 in test [1] (compounds of Formula IV) greater than 5000 nM. The compound further returned a Ki in test [2] (setting [3]) of 100 to 1000 nM.

`CC1(NS(C)(=O)=O)CCCN(c2cc(-c3cnc4ccc(C(F)F)nn34)ncn2)C1` (stereo not shown) [II-446, N-(1-(6-(6-(Difluoromethyl)imidazo[1,2-b]pyridazin-3-yl)pyrimidin-4-yl)-3-methylpiperidin-3-yl)methanesulfonamide] yielded an IC50 in test [1] (compounds of Formula II) greater than 5000 nM. This compound returned a Ki in test [2] (setting [4]) of 10 to 1000 nM. `CS(=O)(=O)NCC1CN(c2cc(-c3cnc4ccc(C(F)F)nn34)ccn2)CCC1(F)F` (stereo not shown) [II-153, N-[[1-[4-[6-(Difluoromethyl)imidazo[1,2-b]pyridazin-3-yl]-2-pyridyl]-4,4-difluoro-3-piperidyl]methyl]methanesulfonamide] had a half-inhibitory concentration (IC50) in test [1] (compounds of Formula II) of less than 500 nM. The Ki in test [2] (setting [4]) is less than 10 nM.

In the case of `CS(=O)(=O)CC1CCN(c2cc(-c3cnc4ccc(C(F)F)nn34)ncn2)C1` (stereo not shown) [II-396, 6-(Difluoromethyl)-3-(6-(3-((methylsulfonyl)methyl)pyrrolidin-1-yl)pyrimidin-4-yl)imidazo[1,2-b]pyridazine], the IC50 in test [1] (compounds of Formula II) lay in the range of 500 to 5000 nM. For the same compound, in test [2] (setting [4]), the Ki was in the range of 10 to 1000 nM.

Compound `COC1CC(CNS(C)(=O)=O)CN(c2cc(-c3cnc4ccc(C(F)F)nn34)ncn2)C1` (single isomer, unassigned) [II-233, N-((1-(6-(6-(Difluoromethyl)imidazo[1,2-b]pyridazin-3-yl)pyrimidin-4-yl)-5-methoxypiperidin-3-yl)methyl)methanesulfonamide] came in with an IC50 in test [1] (compounds of Formula II) of less than 500 nM. In test [2] (setting [4]), this compound registered a Ki of less than 10 nM. In test [1] (compounds of Formula IV), `CS(=O)(=O)NCC1CCCN(c2ccnc(-c3cnc4cnc(C(F)F)cn34)n2)C1` (stereo not shown) [IV-152, N-((1-(2-(6-(Difluoromethyl)imidazo[1,2-a]pyrazin-3-yl)pyrimidin-4-yl)piperidin-3-yl)methyl)methanesulfonamide] yielded a half-maximal inhibitory concentration (IC50) greater than 5000 nM. In test [2] (setting [3]), this compound displayed a Ki of 100 to 1000 nM. In test [1] (compounds of Formula II), `CC(=O)N1CCN(c2cc(-c3cnc4ccc(C)nn34)ccn2)CC1` [II-193, 1-(4-(4-(6-Methylimidazo[1,2-b]pyridazin-3-yl)pyridin-2-yl)piperazin-1-yl)ethanone] came in with an IC50 greater than 5000 nM. Further, the Ki in test [2] (setting [4]) fell in the range of 10 to 1000 nM. `CC1(C)CN(c2ccnc(-c3cnc4cnc(Cl)cn34)n2)CC(c2cn[nH]c2)N1` (stereo not shown) [IV-353, 6-Chloro-3-(4-(3,3-dimethyl-5-(1H-pyrazol-4-yl)piperazin-1-yl)pyrimidin-2-yl)imidazo[1,2-a]pyrazine] came in with an IC50 in test [1] (compounds of Formula IV) of 500 to 5000 nM. In test [2] (setting [3]), this compound returned a Ki of 100 to 1000 nM. In test [1] (compounds of Formula II), `CC1C(c2cn[nH]c2)NCCN1c1cc(-c2cnc3ccc(C(F)(F)F)nn23)ncn1` (stereo not shown) [II-706, 3-(6-(2-Methyl-3-(1H-pyrazol-4-yl)piperazin-1-yl)pyrimidin-4-yl)-6-(trifluoromethyl)imidazo[1,2-b]pyridazine] came in with an IC50 of 500 to 5000 nM. In test [2] (setting [4]), this compound returned a Ki of 10 to 1000 nM. The compound `COCC(=O)N1CCN(c2cc(-c3cnc4ccc(C(F)F)nn34)ccn2)CC1` [II-170, 1-(4-(4-(6-(Difluoromethyl)imidazo[12-b]pyridazin-3-yl)pyridin-2-yl)piperazin-1-yl)-2-methoxyethanone] had an IC50 in test [1] (compounds of Formula II) of 500 to 5000 nM. In addition, the Ki in test [2] (setting [4]) was 10 to 1000 nM. In test [1] (compounds of Formula IV), `NC(=O)CCC1CCCN(c2ccnc(-c3cnc4cnc(C(F)F)cn34)n2)C1` (stereo not shown) [IV-45, 3-(1-(2-(6-(Difluoromethyl)imidazo[1,2-a]pyrazin-3-yl)pyrimidin-4-yl)piperidin-3-yl)propanamide] came in with an IC50 greater than 5000 nM. For the same compound, in test [2] (setting [3]), the Ki lay in the range of 100 to 1000 nM. `CC1CN(c2cccc(-c3cnc4cnc(C(F)(F)F)cn34)n2)C(C)C(c2cn[nH]c2)N1` (stereo not shown) [IV-583, 3-(6-(2,5-Dimethyl-3-(1H-pyrazol-4-yl)piperazin-1-yl)pyridin-2-yl)-6-(trifluoromethyl)imidazo[1,2-a]pyrazine] showed an IC50 in test [1] (compounds of Formula IV) of 500 to 5000 nM. The compound also returned a Ki in test [2] (setting [3]) of less than 10 nM.

In turn, `CN1CCN(c2cc(-c3cnc4ccc(Cl)nn34)ccn2)CC1` [II-195, 6-Chloro-3-(2-(4-methylpiperazin-1-yl)pyridin-4-yl)imidazo[1,2-b]pyridazine] gave an IC50 in test [1] (compounds of Formula II) greater than 5000 nM. The same compound registered a Ki in test [2] (setting [4]) of 10 to 1000 nM. Turning to `Cc1n[nH]cc1[C@H]1C[C@H](C)CN(c2nccc(-c3cnc4cnc(C(F)(F)F)cn34)n2)C1` [IV-755, 3-(2-((3S,5R)-3-methyl-5-(3-methyl-1H-pyrazol-4-yl)piperidin-1-yl)pyrimidin-4-yl)-6-(trifluoromethyl)imidazo[1,2-a]pyrazine], the 50% inhibitory concentration (IC50) in test [2] (compounds of Formula IV, 4 nM GCN2 kinase) fell in the range of 10 to 1000 nM. `CC1C(NS(C)(=O)=O)CCCN1c1ccnc(-c2cnc3cnc(C(F)F)cn23)n1` (stereo not shown) [IV-127, N-(1-(2-(6-(Difluoromethyl)imidazo[1,2-a]pyrazin-3-yl)pyrimidin-4-yl)-2-methylpiperidin-3-yl)methanesulfonamide] gave a Ki in test [2] (setting [3]) of 100 to 1000 nM. With `CC(=O)N1CCN(c2ccnc(-c3cnc4cnc(-c5ccccc5C#N)cn34)n2)CC1` [IV-301, 2-(3-(4-(4-Acetylpiperazin-1-yl)pyrimidin-2-yl)imidazo[1,2-a]pyrazin-6-yl)benzonitrile], the Ki in test [2] (setting [3]) fell in the range of 100 to 1000 nM. `CC1C(CN=S(C)(C)=O)CCCN1c1cc(-c2cnc3ccc(C(F)F)nn23)ncn1` (stereo not shown) [II-583, (((1-(6-(6-(Difluoromethyl)imidazo[1,2-b]pyridazin-3-yl)pyrimidin-4-yl)-2-methylpiperidin-3-yl)methyl)imino)dimethyl-λ^6-sulfanone] displayed a Ki in test [2] (setting [4]) greater than 1000 nM. For `FC(F)(F)c1cn2c(-c3nccc(N4CCCC(c5nncs5)C4)n3)cnc2cn1` (stereo not shown) [IV-671, 2-(1-(2-(6-(Trifluoromethyl)imidazo[1,2-a]pyrazin-3-yl)pyrimidin-4-yl)piperidin-3-yl)-1,3,4-thiadiazole], the Ki in test [2] (setting [3]) was 100 to 1000 nM. In test [2] (setting [3]), `CN1CCN(c2ccnc(-c3cnc4cnc(C(F)(F)F)cn34)n2)CC1C(N)=O` (stereo not shown) [IV-596, 1-Methyl-4-(2-(6-(trifluoromethyl)imidazo[1,2-a]pyrazin-3-yl)pyrimidin-4-yl)piperazine-2-carboxamide] yielded a Ki of 100 to 1000 nM. For `NC(=O)c1cn2c(-c3nccc(N4CCN(C(=O)C5CC5)CC4)n3)cnc2cn1` [IV-277, 3-(4-(4-(Cyclopropanecarbonyl)piperazin-1-yl)pyrimidin-2-yl)imidazo[1,2-a]pyrazine-6-carboxamide], the Ki in test [2] (setting [3]) fell in the range of 10 to 100 nM.
